In patent US6737383B1, “Herbicidal oxadiazolidines” (priority 1999, dated 2004):

Key:
smallflower flatsedge = test: Test B flood test smallflower flatsedge; assay type: in vivo, Cyperus difformis
Procedure, shortened: (§1)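 Each value is a visual injury score relative to controls, with 10 meaning complete control and 0 no effect. Evaluation took place twelve to sixteen days after the 2-leaf-stage plants were treated and kept in the greenhouse.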

bedstraw = test: Test B pre/postemergence bedstraw; assay type: in vivo, Galium aparine
Procedure, shortened: (§2)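 Test chemicals in a non-phytotoxic solvent mixture with surfactant were sprayed preemergence onto planted seeds and postemergence onto plants 2 to 18 cm tall (1- to 4-leaf stage). After twelve to sixteen days in a greenhouse, injury was visually rated against untreated controls from 0 (no effect) to 10 (complete control).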

duck salad = test: Test B flood test duck salad; assay type: in vivo, Heteranthera limosa
Procedure, shortened: as §1

corn = test: Test B pre/postemergence corn; assay type: in vivo, Zea mays
Procedure, shortened: as §2

wheat = test: Test B pre/postemergence wheat; assay type: in vivo, Triticum aestivum; details: for Plant response rating, Wheat: scale of 0 to 10 where 0 is no effect and 10 is complete control
Procedure, shortened: as §2

wild oat = test: Test B pre/postemergence wild oat; assay type: in vivo, Avena fatua; details: for Plant response rating, Wild oats: scale of 0 to 10 where 0 is no effect and 10 is complete control
Procedure, shortened: as §2

blackgrass = test: Test B pre/postemergence blackgrass; assay type: in vivo, Alopecurus myosuroides
Procedure, shortened: as §2

pigweed = test: Test B pre/postemergence pigweed; assay type: in vivo, Amaranthus retroflexus; details: for Plant response rating, Redroot pigweed: scale of 0 to 10 where 0 is no effect and 10 is complete control
Procedure, shortened: as §2

surinam grass = test: Test B pre/postemergence surinam grass; assay type: in vivo, Brachiaria decumbens
Procedure, shortened: as §2

rape = test: Test B pre/postemergence rape; assay type: in vivo, Brassica napus; details: for Plant response rating, Rape: scale of 0 to 10 where 0 is no effect and 10 is complete control
Procedure, shortened: as §2

crabgrass = test: Test B pre/postemergence crabgrass; assay type: in vivo, Digitaria sanguinalis
Procedure, shortened: as §2

sugar beet = test: Test B pre/postemergence sugar beet; assay type: in vivo, Beta vulgaris; details: for Plant response rating, Sugarbeets: scale of 0 to 10 where 0 is no effect and 10 is complete control
Procedure, shortened: as §2

purple nutsedge = test: Test B pre/postemergence purple nutsedge; assay type: in vivo, Cyperus rotundus; details: for Plant response rating, Nutsedge: scale of 0 to 10 where 0 is no effect and 10 is complete control
Procedure, shortened: as §2

velvetleaf = test: Test B pre/postemergence velvetleaf; assay type: in vivo, Abutilon theophrasti; details: for Plant response rating, Velvetleaf: scale of 0 to 10 where 0 is no effect and 10 is complete control
Procedure, shortened: as §2

soybean = test: Test B pre/postemergence soybean; assay type: in vivo, Glycine max; details: for Plant response rating, Soybean: scale of 0 to 10 where 0 is no effect and 10 is complete control
Procedure, shortened: as §2

rice = test: Test B flood test rice; assay type: in vivo, Oryza sativa
Procedure, shortened: as §1

[1] = Rate 62 g/ha, flood test species, Pre-emergence, visual evaluation after twelve to sixteen days
[2] = Rate 125 g/ha, under heading Pre-emergence, flood test species, visual evaluation after twelve to sixteen days
[3] = Rate 250 g/ha, Pre-emergence (flood test species), scale 0 to 10, 0 is no effect, 10 is complete control
[4] = Rate 500 g/ha, Pre-emergence, flood test species, scale 0 to 10 (0 no effect, 10 complete control)
[5] = Postemergence, Rate 250 g/ha, scale 0 to 10
[6] = Postemergence, Rate 500 g/ha, scale of 0 to 10 where 0 is no effect and 10 is complete control
[7] = Preemergence, Rate 62 g/ha, scale of 0 to 10 where 0 is no effect and 10 is complete control
[8] = Preemergence, Rate 500 g/ha, scale 0 to 10, 0 is no effect, 10 is complete control
[9] = Rate 62 g/ha, Postemergence, scale 0 to 10 (0 no effect, 10 complete control)
[10] = Rate 125 g/ha, Postemergence, scale 0 to 10, 0 is no effect, 10 is complete control
[11] = Preemergence, Rate 125 g/ha, scale of 0 to 10 where 0 is no effect and 10 is complete control
[12] = Preemergence, Rate 250 g/ha, scale 0 to 10, 0 is no effect, 10 is complete control

With `CC(C)N(C(=O)n1oc(=O)n(CCCl)c1=O)c1ccc(Cl)cc1` [Compound 474] as the compound, how does the “Plant response rating, S. Flatsedge (0 to 10 scale, 0 is no effect, 10 is complete control)” value (smallflower flatsedge; [1]) read?
Its value is 0.

What about the “S. Flatsedge plant response rating (0 to 10 scale, 0 is no effect, 10 is complete control)” value (smallflower flatsedge; [2]) of the same compound?
Its value is 0.

What about the “S. Flatsedge plant response rating” value (smallflower flatsedge; [3]) of the same compound?
Its value is 0.

What about the “S. Flatsedge plant response rating” value (smallflower flatsedge; [4]) of the same compound?
Its value is 0.

What about the “Bedstraw plant response rating” value (bedstraw; [5]) of the same compound?
Its value is 8.

And the “Bedstraw plant response rating” value (bedstraw; [6])?
The value was 8.

What about the “Plant response rating, Bedstraw” value (bedstraw; [7]) of the same compound?
The value was 0.

What about the “Bedstraw plant response rating” value (bedstraw; [8]) of the same compound?
The value was 0.

What about the “Bedstraw plant response rating” value (bedstraw; [9]) of the same compound?
Its value is 6.

What about the “Bedstraw plant response rating” value (bedstraw; [10]) of the same compound?
Its value is 6.

What about the “Plant response rating, Ducksalad (0 to 10 scale, 0 is no effect, 10 is complete control)” value (duck salad; [1]) of the same compound?
Its value is 0.

What about the “Ducksalad plant response rating (0 to 10 scale, 0 is no effect, 10 is complete control)” value (duck salad; [2]) of the same compound?
The value was 0.

What about the “Ducksalad plant response rating” value (duck salad; [3]) of the same compound?
Its value is 0.

What about the “Ducksalad plant response rating” value (duck salad; [4]) of the same compound?
Its value is 0.

What about the “Corn plant response rating” value (corn; [5]) of the same compound?
Its value is 0.

And the “Corn plant response rating” value (corn; [6])?
The value was 0.

And the “Plant response rating, Corn” value (corn; [7])?
The value was 0.

What about the “Plant response rating, Corn” value (corn; [11]) of the same compound?
Its value is 0.

What about the “Corn plant response rating” value (corn; [12]) of the same compound?
Its value is 0.

And the “Corn plant response rating” value (corn; [8])?
Its value is 4.

What about the “Corn plant response rating” value (corn; [9]) of the same compound?
The value was 0.

And the “Corn plant response rating” value (corn; [10])?
The value was 0.

What about the “Wheat plant response rating” value (wheat; [5]) of the same compound?
Its value is 0.

And the “Plant response rating, Wheat” value (wheat; Preemergence, Rate 62 g/ha)?
Its value is 0.

What about the “Plant response rating, Wheat” value (wheat; Preemergence, Rate 125 g/ha) of the same compound?
Its value is 0.

And the “Wheat plant response rating” value (wheat; [12])?
The value was 0.

What about the “Wheat plant response rating” value (wheat; [8]) of the same compound?
Its value is 0.

What about the “Wheat plant response rating” value (wheat; [9]) of the same compound?
The value was 0.

What about the “Wheat plant response rating” value (wheat; [10]) of the same compound?
Its value is 0.

And the “Wild oats plant response rating” value (wild oat; [5])?
The value was 0.

What about the “Plant response rating, Wild oats” value (wild oat; Preemergence, Rate 62 g/ha) of the same compound?
The value was 0.

What about the “Plant response rating, Wild oats” value (wild oat; Preemergence, Rate 125 g/ha) of the same compound?
Its value is 3.

What about the “Wild oats plant response rating” value (wild oat; [12]) of the same compound?
Its value is 4.

What about the “Wild oats plant response rating” value (wild oat; [8]) of the same compound?
The value was 8.

What about the “Wild oats plant response rating” value (wild oat; [9]) of the same compound?
The value was 0.

And the “Wild oats plant response rating” value (wild oat; [10])?
The value was 0.

And the “Blackgrass plant response rating” value (blackgrass; [5])?
The value was 8.

And the “Blackgrass plant response rating” value (blackgrass; [6])?
Its value is 8.

And the “Plant response rating, Blackgrass” value (blackgrass; [7])?
Its value is 3.

What about the “Plant response rating, Blackgrass” value (blackgrass; [11]) of the same compound?
Its value is 3.

And the “Blackgrass plant response rating” value (blackgrass; [12])?
Its value is 4.

What about the “Blackgrass plant response rating” value (blackgrass; [8]) of the same compound?
The value was 9.

What about the “Blackgrass plant response rating” value (blackgrass; [9]) of the same compound?
The value was 7.

And the “Redroot pigweed plant response rating” value (pigweed; [5])?
Its value is 2.

And the “Plant response rating, Redroot pigweed” value (pigweed; Preemergence, Rate 62 g/ha)?
The value was 1.

And the “Plant response rating, Redroot pigweed” value (pigweed; Preemergence, Rate 125 g/ha)?
The value was 3.

What about the “Redroot pigweed plant response rating” value (pigweed; [12]) of the same compound?
Its value is 5.

What about the “Redroot pigweed plant response rating” value (pigweed; [8]) of the same compound?
Its value is 7.

And the “Redroot pigweed plant response rating” value (pigweed; [9])?
The value was 0.

What about the “Redroot pigweed plant response rating” value (pigweed; [10]) of the same compound?
Its value is 1.

And the “B. signalgrass plant response rating” value (surinam grass; Postemergence, Rate 250 g/ha, scale 0 to 10, 0 no effect, 10 complete control)?
The value was 1.

What about the “B. signalgrass plant response rating” value (surinam grass; [6]) of the same compound?
The value was 4.

What about the “Plant response rating, B. signalgrass” value (surinam grass; [7]) of the same compound?
Its value is 0.

And the “Plant response rating, B. signalgrass” value (surinam grass; [11])?
Its value is 2.

What about the “B. signalgrass plant response rating” value (surinam grass; [12]) of the same compound?
Its value is 7.

And the “B. signalgrass plant response rating” value (surinam grass; [8])?
The value was 7.

What about the “B. signalgrass plant response rating” value (surinam grass; [9]) of the same compound?
The value was 0.

What about the “B. signalgrass plant response rating” value (surinam grass; [10]) of the same compound?
Its value is 1.

And the “Rape plant response rating” value (rape; [5])?
Its value is 0.

What about the “Plant response rating, Rape” value (rape; Preemergence, Rate 62 g/ha) of the same compound?
Its value is 0.

And the “Plant response rating, Rape” value (rape; Preemergence, Rate 125 g/ha)?
Its value is 0.

What about the “Rape plant response rating” value (rape; [12]) of the same compound?
Its value is 2.

And the “Rape plant response rating” value (rape; [8])?
Its value is 4.

And the “Rape plant response rating” value (rape; [9])?
Its value is 0.

What about the “Rape plant response rating” value (rape; [10]) of the same compound?
The value was 0.

What about the “Crabgrass plant response rating” value (crabgrass; [5]) of the same compound?
The value was 6.

What about the “Crabgrass plant response rating” value (crabgrass; [6]) of the same compound?
The value was 9.

And the “Plant response rating, Crabgrass” value (crabgrass; [7])?
The value was 6.

What about the “Plant response rating, Crabgrass” value (crabgrass; [11]) of the same compound?
The value was 9.

What about the “Crabgrass plant response rating” value (crabgrass; [12]) of the same compound?
Its value is 9.

What about the “Crabgrass plant response rating” value (crabgrass; [8]) of the same compound?
The value was 10.

And the “Crabgrass plant response rating” value (crabgrass; [9])?
Its value is 2.

And the “Crabgrass plant response rating” value (crabgrass; [10])?
Its value is 5.

What about the “Sugarbeets plant response rating” value (sugar beet; [5]) of the same compound?
The value was 0.

And the “Plant response rating, Sugarbeets” value (sugar beet; Preemergence, Rate 62 g/ha)?
Its value is 0.

And the “Plant response rating, Sugarbeets” value (sugar beet; Preemergence, Rate 125 g/ha)?
The value was 0.

And the “Sugarbeets plant response rating” value (sugar beet; [12])?
Its value is 0.

And the “Sugarbeets plant response rating” value (sugar beet; [8])?
Its value is 3.

And the “Sugarbeets plant response rating” value (sugar beet; [9])?
Its value is 0.

And the “Sugarbeets plant response rating” value (sugar beet; [10])?
The value was 0.

What about the “Nutsedge plant response rating” value (purple nutsedge; [5]) of the same compound?
The value was 0.

What about the “Plant response rating, Nutsedge” value (purple nutsedge; Preemergence, Rate 62 g/ha) of the same compound?
Its value is 0.

What about the “Plant response rating, Nutsedge” value (purple nutsedge; Preemergence, Rate 125 g/ha) of the same compound?
The value was 0.

What about the “Nutsedge plant response rating” value (purple nutsedge; [12]) of the same compound?
Its value is 0.

And the “Nutsedge plant response rating” value (purple nutsedge; [8])?
The value was 0.

What about the “Nutsedge plant response rating” value (purple nutsedge; [9]) of the same compound?
Its value is 0.

And the “Nutsedge plant response rating” value (purple nutsedge; [10])?
The value was 0.

And the “Velvetleaf plant response rating” value (velvetleaf; [5])?
Its value is 0.

And the “Plant response rating, Velvetleaf” value (velvetleaf; Preemergence, Rate 62 g/ha)?
Its value is 0.

And the “Plant response rating, Velvetleaf” value (velvetleaf; Preemergence, Rate 125 g/ha)?
Its value is 0.

And the “Velvetleaf plant response rating” value (velvetleaf; [12])?
Its value is 0.

What about the “Velvetleaf plant response rating” value (velvetleaf; [8]) of the same compound?
The value was 0.

What about the “Velvetleaf plant response rating” value (velvetleaf; [9]) of the same compound?
Its value is 0.

What about the “Velvetleaf plant response rating” value (velvetleaf; [10]) of the same compound?
Its value is 0.

And the “Soybean plant response rating” value (soybean; [5])?
The value was 4.

And the “Plant response rating, Soybean” value (soybean; Preemergence, Rate 62 g/ha)?
Its value is 0.

What about the “Plant response rating, Soybean” value (soybean; Preemergence, Rate 125 g/ha) of the same compound?
Its value is 0.

And the “Soybean plant response rating” value (soybean; [12])?
Its value is 0.

What about the “Soybean plant response rating” value (soybean; [8]) of the same compound?
The value was 0.

What about the “Soybean plant response rating” value (soybean; [9]) of the same compound?
The value was 3.

What about the “Soybean plant response rating” value (soybean; [10]) of the same compound?
The value was 4.

What about the “Plant response rating, Rice (0 to 10 scale, 0 is no effect, 10 is complete control)” value (rice; [1]) of the same compound?
Its value is 0.

And the “Rice plant response rating (0 to 10 scale, 0 is no effect, 10 is complete control)” value (rice; [2])?
Its value is 0.

What about the “Rice plant response rating” value (rice; [3]) of the same compound?
Its value is 0.

What about the “Rice plant response rating” value (rice; [4]) of the same compound?
The value was 0.
